Data published in patent US7935815B2, “Imidazoyl pyridine compounds and salts thereof” (Eisai R&D Management Co., Ltd., priority 2007, dated 2011).

These compounds were tested on Aβ42 production (assay: Quantification of Aβ peptide in culture of neurons from rat fetus brain (Aβ ELISA)). Conditions: Rattus norvegicus, Neuron, 72 h, rat primary neuronal culture (embryonic day 18 Wistar rat cerebral cortex); cultured three days after addition of compound; Aβx-42 ELISA of the medium; read-out: Aβ42 production reducing effect IC50.
Type: cell-based
Summary of the method: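 Primary cortical neurons from E18 Wistar rat embryos were cultured 4 days on poly-lysine, then treated with compound in Neurobasal/B27 without 2-mercaptoethanol (final DMSO ≤1%) for 3 days. Conditioned medium was assayed undiluted by ELISA for Aβx-42, against DMSO-only controls.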
Compound `COc1cc(/C=C/c2nc3n(n2)CC[C@@H](C)[C@@H]3c2ccc(F)cc2)ccc1-n1cnc(C)c1` [Example 102, (7R,8R)-8-(4-fluorophenyl)-2-{(E)-2-[3-methoxy-4-(4-methyl-1H-imidazol-1-yl)phenyl]vinyl}-7-methyl-5,6,7,8-tetrahydro-[1,2,4]triazolo[1,5-a]pyridine] has an IC50 of 20 nM.
`COc1cc(/C=C/c2nc3n(n2)CC[C@H](O)[C@H]3c2cc(F)c(F)c(F)c2)ccc1-n1cnc(C)c1` [Example 103, (7S,8S)-2-{(E)-2-[3-methoxy-4-(4-methyl-1H-imidazol-1-yl)phenyl]vinyl}-8-(3,4,5-trifluorophenyl)-5,6,7,8-tetrahydro-[1,2,4]triazolo[1,5-a]pyridin-7-ol] was tested, and the IC50 was 32 nM.
Compound `COc1cc(/C=C/c2nc3n(n2)CC[C@H](O)[C@@H]3c2cc(F)c(F)c(F)c2)ccc1-n1cnc(C)c1` [Example 106, (7S,8R)-2-{(E)-2-[3-methoxy-4-(4-methyl-1H-imidazol-1-yl)phenyl]vinyl}-8-(3,4,5-trifluorophenyl)-5,6,7,8-tetrahydro-[1,2,4]triazolo[1,5-a]pyridin-7-ol] has an IC50 of 39 nM.
Compound `COc1cc(/C=C/c2nc3n(n2)C[C@@H](O)C[C@@H]3c2cc(F)c(F)c(F)c2)ccc1-n1cnc(C)c1` [Example 108, (6S,8R)-2-{(E)-2-[3-methoxy-4-(4-methyl-1H-imidazol-1-yl)phenyl]vinyl}-8-(3,4,5-trifluorophenyl)-5,6,7,8-tetrahydro-[1,2,4]triazolo[1,5-a]pyridin-6-ol] has an IC50 of 29 nM.
With `COc1cc(/C=C/c2nc3n(n2)C[C@H](O)C[C@@H]3c2cc(F)c(F)c(F)c2)ccc1-n1cnc(C)c1` [Example 110, (6R,8R)-2-{(E)-2-[3-methoxy-4-(4-methyl-1H-imidazol-1-yl)phenyl]vinyl}-8-(3,4,5-trifluorophenyl)-5,6,7,8-tetrahydro-[1,2,4]triazolo[1,5-a]pyridin-6-ol] the IC50 was 33 nM.
For `COc1cc(/C=C/c2nc3n(n2)CCCCN3c2ccc(F)cc2)ccc1-n1cnc(C)c1` [Example 165, 8-(4-fluorophenyl)-2-{(E)-2-[3-methoxy-4-(4-methyl-1H-imidazol-1-yl)phenyl]vinyl}-5,6,7,8-tetrahydro-4H-1,3,3a,8-tetraazaazulene], the IC50 was 115 nM.
`COc1nc(/C=C/c2nc3n(n2)CCCN3c2ccc(Cl)cc2)ccc1-n1cnc(C)c1` [Example 232, 4-(4-chlorophenyl)-2-{(E)-2-[6-methoxy-5-(4-methyl-1H-imidazol-1-yl)pyridin-2-yl]vinyl}-4,5,6,7-tetrahydro-[1,2,4]triazolo[1,5-a]pyrimidine] gave an IC50 of 33 nM.
Work on `COc1nc(/C=C/c2nc3n(n2)CCCN3c2ccccc2)ccc1-n1cnc(C)c1` [Example 233, 2-{(E)-2-[6-methoxy-5-(4-methyl-1H-imidazol-1-yl)pyridin-2-yl]vinyl}-4-phenyl-4,5,6,7-tetrahydro-[1,2,4]triazolo[1,5-a]pyrimidine] yielded an IC50 of 42 nM.
`COc1nc(/C=C/c2nc3n(n2)CC[C@H](C)N3c2ccc(F)cc2)ccc1-n1cnc(C)c1` [Example 236, (S)-4-(4-fluorophenyl)-2-{(E)-2-[6-methoxy-5-(4-methyl-1H-imidazol-1-yl)pyridin-2-yl]vinyl}-5-methyl-4,5,6,7-tetrahydro-[1,2,4]triazolo[1,5-a]pyrimidine] showed an IC50 of 39 nM.
Compound `COc1nc(/C=C/c2nc3n(n2)C(C)CCC3c2ccccc2C(F)(F)F)ccc1-n1cnc(C)c1` (stereo not drawn) [Example 361, 2-{(E)-2-[6-methoxy-5-(4-methyl-1H-imidazol-1-yl)pyridin-2-yl]vinyl}-5-methyl-8-(2-trifluoromethylphenyl)-5,6,7,8-tetrahydro-[1,2,4]triazolo[1,5-a]pyridine] has an IC50 of 12 nM.
`COc1nc(/C=C/c2nc3n(n2)CCOC3c2ccccc2C(F)(F)F)ccc1-n1cnc(C)c1` (stereo not drawn) [Example 368, 2-{(E)-2-[6-methoxy-5-(4-methyl-1H-imidazol-1-yl)pyridin-2-yl]vinyl}-8-(2-trifluoromethylphenyl)-5,6-dihydro-8H-[1,2,4]triazolo[5,1-c][1,4]oxazine] was tested, and the IC50 was 25 nM.
For `COc1nc(/C=C/c2nc3n(n2)CCC(C)N3c2ccc(F)cc2F)ccc1-n1cnc(C)c1` (stereo not drawn) [Example 371, 4-(2,4-difluorophenyl)-2-{(E)-2-[6-methoxy-5-(4-methyl-1H-imidazol-1-yl)pyridin-2-yl]vinyl}-5-methyl-4,5,6,7-tetrahydro-[1,2,4]triazolo[1,5-a]pyrimidine], the IC50 was 27 nM.
In the case of `COc1nc(/C=C/c2nc3n(n2)CCC(C)N3c2ccccc2C(F)(F)F)ccc1-n1cnc(C)c1` (stereo not drawn) [Example 373, 2-{(E)-2-[6-methoxy-5-(4-methyl-1H-imidazol-1-yl)pyridin-2-yl]vinyl}-5-methyl-4-(2-trifluoromethylphenyl)-4,5,6,7-tetrahydro-[1,2,4]triazolo[1,5-a]pyrimidine], the IC50 is reported as 29 nM.
With `COc1nc(/C=C/c2nc3n(n2)CCC3c2ccccc2)ccc1-n1cnc(C)c1` (stereo not drawn) [Example 376, 2-{(E)-2-[6-methoxy-5-(4-methyl-1H-imidazol-1-yl)pyridin-2-yl]vinyl}-7-phenyl-6,7-dihydro-5H-pyrrolo[1,2-b][1,2,4]triazole] the IC50 was 28 nM.
`COc1nc(/C=C/c2nc3n(n2)CCC3c2ccc(F)c(F)c2)ccc1-n1cnc(C)c1` (stereo not drawn) [Example 380, 7-(3,4-difluorophenyl)-2-{(E)-2-[6-methoxy-5-(4-methyl-1H-imidazol-1-yl)pyridin-2-yl]vinyl}-6,7-dihydro-5H-pyrrolo[1,2-b][1,2,4]triazole] showed an IC50 of 29 nM.
In the case of `COc1nc(/C=C/c2nc3n(n2)CCC3c2cc(F)cc(F)c2)ccc1-n1cnc(C)c1` (stereo not drawn) [Example 384, 7-(3,5-difluorophenyl)-2-{(E)-2-[6-methoxy-5-(4-methyl-1H-imidazol-1-yl)pyridin-2-yl]vinyl}-6,7-dihydro-5H-pyrrolo[1,2-b][1,2,4]triazole], the IC50 is reported as 36 nM.
`COc1nc(/C=C/c2nc3n(n2)CCC3c2ccccc2C(F)(F)F)ccc1-n1cnc(C)c1` (stereo not drawn) [Example 390, 2-{(E)-2-[6-methoxy-5-(4-methyl-1H-imidazol-1-yl)pyridin-2-yl]vinyl}-7-(2-trifluoromethylphenyl)-6,7-dihydro-5H-pyrrolo[1,2-b][1,2,4]triazole] showed an IC50 of 26 nM.
Work on `COc1nc(/C=C/c2nc3n(n2)CCC3c2cc(F)ccc2C(F)(F)F)ccc1-n1cnc(C)c1` (stereo not drawn) [Example 392, 7-(5-fluoro-2-trifluoromethylphenyl)-2-{(E)-2-[6-methoxy-5-(4-methyl-1H-imidazol-1-yl)pyridin-2-yl]vinyl}-6,7-dihydro-5H-pyrrolo[1,2-b][1,2,4]triazole] yielded an IC50 of 22 nM.

Same assay, conditions: rat primary neuronal culture (embryonic day 18 Wistar rat cerebral cortex); cultured three days after addition of compound; Aβx-42 ELISA of the medium; read-out: Aβ42 production reducing effect IC50
`COc1nc(/C=C/c2nc3n(n2)CCC[C@H]3c2ccc(F)c(F)c2F)ccc1-n1cnc(C)c1` [Example 339, (S)-2-{(E)-3-[6-methoxy-5-(4-methyl-1H-imidazol-1-yl)pyridin-2-yl]vinyl}-8-(2,3,4-trifluorophenyl)-5,6,7,8-tetrahydro-[1,2,4]triazole[1,5-a]pyridine] showed an IC50 of 21 nM.
In the case of `COc1nc(/C=C/c2nc3n(n2)C(C)CCC3c2ccccc2C(F)(F)F)ccc1-n1cnc(C)c1` (stereo not drawn) [Example 362, 2-{(E)-2-[6-methoxy-5-(4-methyl-1H-imidazol-1-yl)pyridin-2-yl]vinyl}-5-methyl-8-(2-trifluoromethylphenyl)-5,6,7,8-tetrahydro-[1,2,4]triazolo[1,5-a]pyridine], the IC50 is reported as 9 nM.
Work on `COc1nc(/C=C/c2nc3n(n2)CCCC3c2cc(F)cc(F)c2)ccc1-n1cnc(C)c1` (stereo not drawn) [Example 365, 8-(3,5-difluorophenyl)-2-{(E)-2-[6-methoxy-5-(4-methyl-1H-imidazol-1-yl)pyridin-2-yl]vinyl}-5,6,7,8-tetrahydro-[1,2,4]triazolo[1,5-a]pyridine] yielded an IC50 of 21 nM.
